Common to all, as to assay type: cell-based, Staphylococcus aureus
Assay [1] deals with S. aureus NRS384. Put plainly: Broth minimum inhibitory concentration (MIC) assay 1, S. aureus growth inhibition. The following applies: S. aureus NRS384 in TSB, 24 h at 37° C., OD600 nm; for MIC: Staphylococcus aureus. How it is done:
To test the potency of rifamycin analogs of the disclosure in vitro, a broth growth inhibition assay was developed. For the assay, S. aureus NRS384 was grown in Tryptic Soy Broth (TSB) overnight, then sub-cultured 1:50 in fresh TSB and grown for an additional two hours. The culture was then pelleted via centrifugation and washed twice in PBS. The culture was then diluted to 1×10^4 cfu/mL in TSB and 50 μL of the suspension was added per well to a 96 well microtiter dish in duplicate. A dilution series of the indicated antibiotic (an analog according to the disclosure or a previously known analog Rifampicin) was added 1:1 for a final starting concentration of 1×10^−5 M with 1:3 dilutions. The plates were incubated at 37° C. with shaking for 24 h and then the OD600 nm was read on a Spectramax i3 Minimax 300.
A plot of the S. aureus inhibition assay conducted with rifamycin analogs according to the disclosure is shown as FIG. 1.

Assay [2] has as its system intracellular S. aureus NRS384 in THP-1 macrophages. Put plainly: Intracellular killing assay 1 (rifamycin analogs, S. aureus in THP-1 macrophages). The settings on record: for MIC: Staphylococcus aureus, NRS384, lowest concentration that resulted in intracellular S. aureus eradication. How it is done: THP-1 monocytic cell line was grown in media (RMPI+10% FBS+1% Penicillin/Streptomycin), then seeded at a density of 1e5 cells/well in a 96 well plate and differentiated into macrophages for three days prior to infection using 200 nM PMA. An overnight culture of S. aureus NRS384 was grown in RPMI, washed twice with PBS and resuspended at 1e7 cfu/mL in PBS. THP-1 were washed with warm media (RMPI without FBS) to remove the Penicillin/Streptomycin and then infected with the S. aureus suspension at a multiplicity of infection of 10:1 (S. aureus: macrophages). Plates were spun at 300×g for 5 minutes to synchronize adhesion of the bacteria, then incubated at 37° C. for 2 hours. Free-floating bacteria were removed by washing 2× with warm media and remaining extracellular S. aureus were killed by addition of media containing gentamicin (50 ug/mL). After 1 h, media was aspirated and the indicated compound was added to infected macrophages in media containing 50 µg/mL gentamicin to prevent extracellular growth of S. aureus. After 2 h, plates were washed 2× with warm RPMI without FBS, and 100 ul of THP-1 lysis buffer (0.1% Triton in PBS) was added to each well. S. aureus survival was enumerated by colony forming units through serial dilution and plating onto TSA.

Assay [3] has as its system S. aureus NRS384. As to the kind of experiment: Broth minimum inhibitory concentration (MIC) assay 2. The settings on record: S. aureus NRS384 in TSB, 24 hours at 37° C., OD600, median of at least two independent experiments; for MIC: Staphylococcus aureus, read-out: S. aureus Broth MIC. In short, it runs like this: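 S. aureus NRS384, washed and diluted to 1×10^6 cfu/mL in TSB, incubated with compound in triplicate at 37° C with shaking for 24 hours. Growth read as OD600 nm; MIC reported as median of at least two independent experiments.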

Assay [4] deals with intracellular S. aureus NRS384 in THP-1 macrophages. Put plainly: Intracellular killing assay 2 (rifamycin analogs, S. aureus in THP-1 macrophages). The settings on record: lowest concentration giving intracellular S. aureus below limit of detection (50 cfu/mL) in THP-1 macrophages, median of at least two experiments; for MIC: Staphylococcus aureus, NRS384, 2 h, read-out: S. aureus Intracellular killing MIC. The procedure, abridged:
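PMA-differentiated THP-1 cells were infected at MOI 10:1 for 2 h at 37 °C, then extracellular bacteria were killed with gentamicin. Compounds were given for 2 h in gentamicin-containing media. Cells were lysed in 0.1% Triton and surviving bacteria counted as CFU on TSA; median of ≥2 independent experiments.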

Each structure is given as a SMILES string. Converted amounts (≈) assume the structure as drawn. “Also recorded” adds a separate entry of the source.

For `COc1ccc2nc3c4c5c6c(C)c(O)c4c(=O)c(c-3oc2c1)NC(=O)/C(C)=C\C=C\[C@H](C)[C@H](O)[C@@H](C)[C@@H](O)[C@@H](C)[C@H](OC(C)=O)[C@H](C)[C@@H](OC)/C=C/O[C@@](C)(O6)C5=O` [Analog 1a, Rifamycin 4-MeO-Phenol Analogs], the results for the MIC (in the assay on S. aureus NRS384 [1]; in assay [2] (2 h with compound)) were 0.014 µM (≈ 0.0114 µg/mL) and 1 µM (≈ 0.815 µg/mL), respectively. Moreover, in assay [2], the “intracellular S. aureus killing capacity compared to rifampicin (in words)” value is “increased intracellular S. aureus killing capacity compared to rifampicin”.

Consider `CO[C@H]1/C=C/O[C@@]2(C)Oc3c(C)c(O)c4c(=O)c(c5oc6cc(OCc7ccccc7)ccc6nc-5c4c3C2=O)NC(=O)/C(C)=C\C=C\[C@H](C)[C@H](O)[C@@H](C)[C@@H](O)[C@@H](C)[C@H](OC(C)=O)[C@@H]1C` [Analog 1b, Rifamycin 4-BnO-Phenol Analogs], for which the MIC in the assay on S. aureus NRS384 [1] is 0.12 µM (≈ 0.107 µg/mL); in assay [2] (2 h with compound) it was greater than 1 µM.

Take `CO[C@H]1/C=C/O[C@@]2(C)Oc3c(C)c(O)c4c(=O)c(c5n(C)c6cc(O)ccc6nc-5c4c3C2=O)NC(=O)/C(C)=C\C=C\[C@H](C)[C@H](O)[C@@H](C)[C@@H](O)[C@@H](C)[C@H](OC(C)=O)[C@@H]1C` [Analog 1d, Rifamycin 4-OH-Phenol N-Methyl analogs]: the MIC in the assay with S. aureus NRS384 [1] is 0.37 µM (≈ 0.301 µg/mL); in assay [2] (2 h with compound), greater than 1 µM.

In the case of `CO[C@H]1/C=C/O[C@@]2(C)Oc3c(C)c(O)c4c(=O)c(c5oc6cc(OC7CCNCC7)ccc6nc-5c4c3C2=O)NC(=O)/C(C)=C\C=C\[C@H](C)[C@H](O)[C@@H](C)[C@@H](O)[C@@H](C)[C@H](OC(C)=O)[C@@H]1C` [Analog 14], the MIC was 0.041 µM (≈ 0.0362 µg/mL) in the assay with S. aureus NRS384 [1] and 1 µM (≈ 0.884 µg/mL) in assay [2] (2 h with compound). Also, the “intracellular S. aureus killing capacity compared to rifampicin (in words)” value in assay [2] is “increased intracellular S. aureus killing capacity compared to rifampicin”.

In the case of `CO[C@H]1/C=C/O[C@@]2(C)Oc3c(C)c(O)c4c(=O)c(c5oc6cc(OCCN(C)C)ccc6nc-5c4c3C2=O)NC(=O)/C(C)=C\C=C\[C@H](C)[C@H](O)[C@@H](C)[C@@H](O)[C@@H](C)[C@H](OC(C)=O)[C@@H]1C` [Analog 16a], the MIC against S. aureus NRS384 [1] turned out to be 0.0015 µM (≈ 0.00131 µg/mL); in assay [2] (2 h with compound) it was 0.04 µM (≈ 0.0349 µg/mL). In addition, the “intracellular S. aureus killing capacity compared to rifampicin (in words)” value in assay [2] is on record as “increased intracellular S. aureus killing capacity compared to rifampicin; also recorded: highest activity”.

As to `CNCCOc1ccc2nc3c4c5c6c(C)c(O)c4c(=O)c(c-3oc2c1)NC(=O)/C(C)=C\C=C\[C@H](C)[C@H](O)[C@@H](C)[C@@H](O)[C@@H](C)[C@H](OC(C)=O)[C@H](C)[C@@H](OC)/C=C/O[C@@](C)(O6)C5=O` [Analog 16d], the MIC in the assay with S. aureus NRS384 [1] was determined as 0.041 µM (≈ 0.0352 µg/mL); in assay [2] (2 h with compound) it was 1 µM (≈ 0.858 µg/mL). In addition, the “intracellular S. aureus killing capacity compared to rifampicin (in words)” value in assay [2] is reported as “increased intracellular S. aureus killing capacity compared to rifampicin”.

For the compound `CO[C@H]1/C=C/O[C@@]2(C)Oc3c(C)c(O)c4c(=O)c(c5oc6cc(OCCN)ccc6nc-5c4c3C2=O)NC(=O)/C(C)=C\C=C\[C@H](C)[C@H](O)[C@@H](C)[C@@H](O)[C@@H](C)[C@H](OC(C)=O)[C@@H]1C` [Analog 16e], the values for the MIC (against S. aureus NRS384 [1]; in assay [2] (2 h with compound)) were 0.0046 µM (≈ 0.00388 µg/mL) and 1 µM (≈ 0.844 µg/mL), respectively. Moreover, the “intracellular S. aureus killing capacity compared to rifampicin (in words)” value in assay [2] is “increased intracellular S. aureus killing capacity compared to rifampicin”.

As for `CO[C@H]1/C=C/O[C@@]2(C)Oc3c(C)c(O)c4c(=O)c(c5oc6cc(OC7CCN(C)CC7)cc(O)c6nc-5c4c3C2=O)NC(=O)/C(C)=C\C=C\[C@H](C)[C@H](O)[C@@H](C)[C@@H](O)[C@@H](C)[C@H](OC(C)=O)[C@@H]1C` [Analog 68], the MIC in the assay with S. aureus NRS384 [3] was determined as 0.0156 µM (≈ 0.0143 µg/mL); in assay [4] it was 0.2 µM (≈ 0.183 µg/mL).

Take `CO[C@H]1/C=C/O[C@@]2(C)Oc3c(C)c(O)c4c(=O)c(c5oc6cccc(OCCN(C)C)c6nc-5c4c3C2=O)NC(=O)/C(C)=C\C=C\[C@H](C)[C@H](O)[C@@H](C)[C@@H](O)[C@@H](C)[C@H](OC(C)=O)[C@@H]1C` [Analog 71]: the MIC in the assay on S. aureus NRS384 [3] is 0.0156 µM (≈ 0.0136 µg/mL); in assay [4], greater than 1 µM.

With `CO[C@H]1/C=C/O[C@@]2(C)Oc3c(C)c(O)c4c(=O)c(c5oc6cc(C#CCN(C)C)ccc6nc-5c4c3C2=O)NC(=O)/C(C)=C\C=C\[C@H](C)[C@H](O)[C@@H](C)[C@@H](O)[C@@H](C)[C@H](OC(C)=O)[C@@H]1C` [Analog 72], the figures for the MIC (with S. aureus NRS384 [3]; in assay [4]) were 0.0625 µM (≈ 0.0541 µg/mL) and greater than 1 µM, respectively.

On to `CO[C@H]1/C=C/O[C@@]2(C)Oc3c(C)c(O)c4c(=O)c(c5oc6cc(CCCN(C)C)ccc6nc-5c4c3C2=O)NC(=O)/C(C)=C\C=C\[C@H](C)[C@H](O)[C@@H](C)[C@@H](O)[C@@H](C)[C@H](OC(C)=O)[C@@H]1C` [Analog 75], for which the MIC was 0.29 µM (≈ 0.252 µg/mL) with S. aureus NRS384 [3] and greater than 1 µM in assay [4].

In the case of `CO[C@H]1/C=C/O[C@@]2(C)Oc3c(C)c(O)c4c(=O)c(c5oc6cccc(O)c6nc-5c4c3C2=O)NCC(=O)/C(C)=C\C=C\[C@H](C)[C@H](O)[C@@H](C)[C@@H](O)[C@@H](C)[C@H](OC(C)=O)[C@@H]1C` [Analog P1], in the assay on S. aureus NRS384 [3], the “S. aureus Broth MIC” value stood at 0.0625 µM. Also, in assay [4], the “S. aureus Intracellular killing MIC” value was found to be 0.2 µM.

Turning to `CO[C@H]1/C=C/O[C@@]2(C)Oc3c(C)c(O)c4c(=O)c(c5oc6cc(F)ccc6nc-5c4c3C2=O)NCC(=O)/C(C)=C\C=C\[C@H](C)[C@H](O)[C@@H](C)[C@@H](O)[C@@H](C)[C@H](O)[C@@H]1C` [Analog P2], in the assay with S. aureus NRS384 [3], the “S. aureus Broth MIC” value is 0.0625 µM. Besides, the “S. aureus Intracellular killing MIC” value in assay [4] was greater than 1 µM.

As to `CO[C@H]1/C=C/O[C@@]2(C)Oc3c(C)c(O)c4c(O)c(c(/C=N/N5CCN(C)CC5)c(O)c4c3C2=O)NC(=O)/C(C)=C\C=C\[C@H](C)[C@H](O)[C@@H](C)[C@@H](O)[C@@H](C)[C@H](OC(C)=O)[C@@H]1C` [Rifampicin, rifampicin, reference compound], the “S. aureus Broth MIC” value in the assay on S. aureus NRS384 [1] came to 0.0046 µM. For the same compound, the “Intracellular killing MIC” value in assay [2] (lowest concentration that resulted in intracellular S. aureus eradication, 2 h with compound) is recorded as greater than 1.0E−06. The MIC in the assay on S. aureus NRS384 [3] worked out at 0.00391 µM (≈ 0.00322 µg/mL); in assay [4], 1 µM (≈ 0.823 µg/mL).

For the origin of these results see patent US11666658B2, “Rifamycin analogs and antibody-drug conjugates thereof” (Regeneron Pharmaceuticals, Inc., priority 2018, dated 2023).
